{"source": "patent US20210070687A1", "about": "“MOLECULAR WEIGHT CONTROLLING AGENT FOR RADICAL POLYMERIZATION, METHOD FOR PRODUCING POLYMER USING SAME, AND POLYMER” (SDP Global Co., Ltd., priority 2017, published 2021)", "experiment": "Solubility in water at 20° C. of the iodine compounds", "conditions": "% means % by weight"}
{"smiles": "CC(C)(I)C(=O)O", "note": "[Example 1, 2-Iodo-2-methylpropionic acid]", "values": [{"measurement": "Solubility in water (20° C.)", "result": 1.9, "unit": "%"}]}
{"smiles": "CC(I)C(N)=O", "note": "(centres unmarked) [Example 2, 2-Iodopropionamide]", "values": [{"measurement": "Solubility in water (20° C.)", "result": 1.2, "unit": "%"}]}
{"smiles": "CC(C)(I)C(=O)OCCO", "note": "[Example 3, 2-Hydroxyethyl 2-iodo-2-methylpropionate]", "values": [{"measurement": "Solubility in water (20° C.)", "result": 3.2, "unit": "%"}]}
{"smiles": "CC(C)(I)C(=O)[O-].[Na+]", "note": "[Example 5, Sodium 2-iodo-2-methylpropionate]", "values": [{"measurement": "Solubility in water (20° C.)", "result": ">10", "unit": "%"}]}
{"smiles": "O=C([O-])C(I)c1ccccc1.[Na+]", "note": "(centres unmarked) [Example 6, Sodium 2-iodo-2-phenylacetate]", "values": [{"measurement": "Solubility in water (20° C.)", "result": ">10", "unit": "%"}]}
{"smiles": "O=C(O)C(I)c1ccccc1", "note": "(centres unmarked) [Reference Example 1, 2-Iodo-2-phenylacetic acid, reference compound]", "values": [{"measurement": "Solubility in water (20° C.)", "result": 0.1, "unit": "%"}]}
{"smiles": "CCOC(=O)C(C)I", "note": "(centres unmarked) [Reference Example 4, Ethyl 2-iodopropionate, reference compound]", "values": [{"measurement": "Solubility in water (20° C.)", "result": 0.2, "unit": "%"}]}
{"smiles": "CCOC(=O)C(C)(C)I", "note": "[Reference Example 5, Ethyl 2-iodo-2-methylpropionate, reference compound]", "values": [{"measurement": "Solubility in water (20° C.)", "result": "<0.1", "unit": "%"}]}
